The target of assay [1] is T1, gp91phox-containing NADPH-oxidase in the mouse macrophage cell line J774 (Mus musculus, UniProt Q61093).
T1 construct: endogenous in cells; host or cells: J774 mouse macrophage cell line (intact cells)
T1 sequence (Q61093 2-570 limits assumed): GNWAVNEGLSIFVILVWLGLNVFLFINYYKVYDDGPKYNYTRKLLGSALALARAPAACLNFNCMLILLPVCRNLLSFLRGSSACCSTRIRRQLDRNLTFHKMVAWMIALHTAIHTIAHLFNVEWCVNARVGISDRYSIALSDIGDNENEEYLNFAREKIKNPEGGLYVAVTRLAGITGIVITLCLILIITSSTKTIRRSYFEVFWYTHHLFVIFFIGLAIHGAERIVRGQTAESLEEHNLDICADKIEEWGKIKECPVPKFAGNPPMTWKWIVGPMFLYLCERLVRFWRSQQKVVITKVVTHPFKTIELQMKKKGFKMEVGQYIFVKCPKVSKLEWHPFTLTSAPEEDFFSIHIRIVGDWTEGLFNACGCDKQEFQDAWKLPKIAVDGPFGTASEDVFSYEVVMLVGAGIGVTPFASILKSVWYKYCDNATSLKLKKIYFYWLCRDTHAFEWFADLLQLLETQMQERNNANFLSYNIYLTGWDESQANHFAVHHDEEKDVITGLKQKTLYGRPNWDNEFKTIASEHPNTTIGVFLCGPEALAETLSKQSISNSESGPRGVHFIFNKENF
T1 sequence (Q61462 1-192 partner): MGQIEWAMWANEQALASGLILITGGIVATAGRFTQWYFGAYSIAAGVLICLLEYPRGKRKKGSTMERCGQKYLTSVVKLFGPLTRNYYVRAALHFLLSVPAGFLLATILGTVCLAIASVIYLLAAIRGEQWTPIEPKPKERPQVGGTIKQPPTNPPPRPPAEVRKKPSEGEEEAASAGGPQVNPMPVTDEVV
Briefly: NADPH oxidase activity in intact J774 mouse macrophages. The following applies: FIG. 2b. Type of assay: cell-based.

For assay [2], the system named is atherosclerotic lesion formation in ApoE−/− mice. Kind of assay: Atherosclerotic lesion formation in aortas of fat-fed ApoE mutant mice. It counts as in vivo, mouse. The following applies: high-fat diet, weekly s.c. suramin for 4 months, vs saline. The procedure:
ApoE^−/− mice: Whole aortas are isolated and cut open via an incision along the ventral wall [Jiang et al., 2001, supra]. Tissues are rinsed with 60% v/v isopropanol and stained with oil red O (0.5%) for 10 minutes at room temperature. After staining, tissues are rinsed in 60% v/v sopropanol and preserved in 10% v/v neutral buffered formalin. The en face surface of the aorta is then imaged and lesion area (red-stained) quantified using MCID imaging analysis software.
Twelve-week-old ApoE mutant mice were fed a high fat diet for a further 4 months. During this 4 month period, the mice were given weekly subcutaneous injections of saline or suramin. Specifically, mice were initially dosed with two weekly injections of 300 mg/kg suramin. Four weeks later a 25 mg/kg dose of suramin was administered, and then weekly doses of 15 mg/kg suramin were administered for a further 11 weeks. At the end of the treatment period, mice were killed by anaesthetic overdose and the aorta was removed, cleaned of adherent fat on the adventitial surface, and then cut longitudinally along the entire length. […] The en face surface of the aorta was then imaged and lesion area (red-stained) quantified and expressed as a percent of total luminal surface area for each of: total aorta, thoracic aorta, abdominal aorta, and aortic arch. […]

Assay [3] relates to cerebral artery NADPH-oxidase activity. Kind of assay: NADPH-induced superoxide production by the rat basilar artery in vitro after subarachnoid haemorrhage, chronic in vivo treatment. Also on record: species or system Sprague-Dawley rats. The note with it: FIG. 13. The procedure: Subarachnoid hemorrhage: On Day 0, rats are briefly anaesthetized (pentobarbital 50 mg/kg ip) and an osmotic minipump containing either saline or suramin is implanted subcutaneously. The dose rate of suramin is 300 mg/kg per 7 days. On Day 5, rats are again anaesthetized and 0.3 ml of blood is withdrawn from a femoral artery and injected into the cerebrospinal fluid around the ventral surface of the brain via the cisterna magna. In some control rats, saline is injected into the cerebrospinal fluid instead of arterial blood. The rat is allowed to recover for a further 2 days, and is then again anaesthetized on Day 7 for study.
On Day 0, rats were briefly anaesthetized and an osmotic minipump containing either saline or suramin was implanted subcutaneously. The dose rate of suramin was 30 or 300 mg/kg per 7 days. On Day 5, rats were again anaesthetized and 0.3 ml of blood was withdrawn from a femoral artery and injected into the cerebrospinal fluid around the ventral surface of the brain via the cisterna magna. In some rats, saline was injected into the cerebrospinal fluid instead of arterial blood. […]
The brain was removed and the basilar artery was isolated and then incubated with 5 micromolar lucigenin, 100 micromolar NADPH and 3 millimolar diethyldithiocarbamate. Superoxide production was measured using lucigenin-enhanced chemiluminescence.

In assay [4] the test system is angiotensin II-induced hypertension. Briefly: Angiotensin II-induced hypertension, arterial blood pressure. It counts as in vivo, rats. The procedure: Measurement of arterial blood pressure: Rats are briefly anaesthetized (ketamine 80 mg/kg ip plus xylazine 10 mg/kg ip) and a saline-filled cannula is inserted in a femoral artery. The cannula is connected to a pressure transducer and a chart recorder. When arterial pressure is observed to be stable (within 5 minutes) mean arterial pressure is calculated and recorded.
Angiotensin II-induced experimental hypertension: On Day 0, rats are briefly anaesthetized (ketamine 80 mg/kg ip plus xylazine 10 mg/kg ip) and an osmotic minipump containing either saline or suramin is implanted subcutaneously. The dose rate of suramin is 300 mg/kg per 14 days. On Day 7, rats are again anaesthetized and another minipump containing saline or angiotensin II is implanted subcutaneously. The dose rate of angiotensin II is 5 mg/kg per 7 days. On Day 14, each rat is again anaesthetized and a cannula was inserted into a femoral artery for measurement of blood pressure. Angiotensin II causes a large increase in mean arterial pressure (of approx. 60-80 mmHg) in control rats.
On Day 0, rats were briefly anaesthetized and an osmotic minipump containing either saline or suramin was implanted subcutaneously. The dose rate of suramin was 300 mg/kg per 14 days. On Day 7, rats were again anaesthetized and another minipump containing saline or angiotensin II was implanted subcutaneously. The dose rate of angiotensin II was 5 mg/kg per 7 days. On Day 14, each rat was again anaesthetized and a cannula was inserted into a femoral artery for measurement of blood pressure. Angiotensin II caused a large increase in blood pressure in rats pretreated with saline. In contrast, the increase in blood pressure by angiotensin II was prevented by approximately 60% in rats pretreated with suramin.

Entries after “also recorded” stand apart in the source; their conditions may differ.

As for `Cc1ccc(C(=O)Nc2ccc(S(=O)(=O)O)c3cc(S(=O)(=O)O)cc(S(=O)(=O)O)c23)cc1NC(=O)c1cccc(NC(=O)Nc2cccc(C(=O)Nc3cc(C(=O)Nc4ccc(S(=O)(=O)O)c5cc(S(=O)(=O)O)cc(S(=O)(=O)O)c45)ccc3C)c2)c1` [suramin], the “effect on gp91phox-containing NADPH-oxidase in J774 macrophages / phagocytic cells” value is recorded as “does not inhibit; also recorded: ineffective” in assay [1] and “little effect” in assay [1] (listed as Suramin). In addition, in assay [2] (FIG. 12), the “atherosclerotic lesion area: total aorta, thoracic aorta, abdominal aorta” value was “markedly smaller lesion areas; also recorded: smaller lesion area”. In addition, the “lesion size in the aortic arch” value in assay [2] (FIG. 12b) was “no effect”. Moreover, the “NADPH (100 μM)-driven superoxide production by isolated basilar artery, control rats” value in assay [3] (suramin 30-300 mg/kg over 7 days, control rats without SAH) is on record as “no effect”. The “NADPH-driven superoxide production by basilar artery 2 days after SAH” value in assay [3] (suramin 30 or 300 mg/kg per 7 days s.c. minipump, rats subjected to SAH) is on record as “not different from levels measured in non-operated control rats; also recorded: prevents the increase”. For the same compound, in assay [4] (suramin 150 mg/kg s.c. per week for 2 weeks, no angiotensin II, ketamine-xylazine anaesthesia, FIG. 15), the “mean arterial blood pressure of control rats” value was “no effect”. Besides, the “prevention of the increase in blood pressure by angiotensin II” value in assay [4] (suramin 300 mg/kg per 14 days, angiotensin II 5 mg/kg per 7 days, Day 14) is given as “approximately 60%”. Also, the “increase in arterial pressure during angiotensin II administration (in words)” value in assay [4] (suramin 1 week prior to and during 1 week of angiotensin II 5 mg/kg s.c., FIG. 15) was “smaller increase”.

Source of the values: patent US20070037883A1, “Therapeutic compositions” (priority 2003, published 2007).
